Data as given in paper PMC6150407, “Synthesis and In Vitro Antiproliferative Activity of 11-Substituted Neocryptolepines with a Branched ω-Aminoalkylamino Chain” (Molecules : A Journal of Synthetic Chemistry and Natural …, 2017).
Structures can show the parent of a compound that is named as a salt.

Experiments:
[1] = system: human leukemia MV4-11 cell line; assay: Antiproliferative assay (MTT, 72 h) against human leukemia MV4-11 cell line; type: cell-based; settings: MV4-11 cells, 72 h exposure, 50% growth inhibition, mean ± SD
Method: (§1) Anti-proliferative assays in vitro were performed in the same manner as described in the literature. The cell lines of human leukemia MV4-11, lung A549, and colon HCT 116 cancer were chosen as representing various tissue origins and BALB/3T3 normal murine fibroblasts to assess the cytotoxicity of tested compounds towards normal cells. The IC50 parameter (half-maximum inhibitory concentration) was calculated based on sulforhodamine B (HCT-116, A549, BALB/3T3) or MTT (MV4-11) assay results after 72 h of exposure. Each compound in a given concentration was tested in triplicate in each experiment, which was repeated three to five times.

[2] = system: normal murine embryonic fibroblast cell line (BALB/3T3); assay: Antiproliferative assay (sulforhodamine B, 72 h) against normal murine fibroblasts BALB/3T3; type: cell-based, mouse; settings: BALB/3T3 normal murine fibroblasts, mean ± SD
Method: as §1

[3] = system: Human lung cancer cell line (A-549); assay: Antiproliferative assay (sulforhodamine B, 72 h) against A549; type: cell-based; settings: A549 cells, mean ± SD
Method: as §1

[4] = system: human colon adenocarcinoma cell line (HCT 116); assay: Antiproliferative assay (sulforhodamine B, 72 h) against HCT 116; type: cell-based; settings: HCT 116 cells, mean ± SD
Method: as §1

[5] = system: human (HL-60) leukaemia cell line; parameters: method as in PMID 11099695; settings: cited from earlier work
[6] = system: human breast cancer MDA-MB-453 cell line; parameters: method as in doi:10.1007/s00044-016-1508-z; settings: MDA-MB-453 breast cancer cell line; cited from earlier work
[7] = system: salmon sperm DNA; assay: DNA binding study by UV-Vis absorption spectroscopy
Method: The DNA binding studies of compound 2d were performed using UV-Vis absorption spectroscopy with salmon sperm DNA in a phosphate buffer of pH 7.0 at 20 °C. […] The maximum absorption shifted from 256 nm to 289 nm. This illustrated that the mode of 2d binding to DNA was intercalation. The binding constant of 2d to DNA was calculated as 4.12 × 10^5 L·mol^−1, according to a double-reciprocal equation.
Figure 3 (a) UV-Vis absorption spectra of compound 2d at 20 °C. C(2d) = 50 μmol/L, C(DNA) = 0.0, 0.025, 0.05, 0.075, 0.1, 0.125, 0.15, 0.175, 0.2, 0.225, 0.25 μmol/L for curves 1–11 in phosphate buffer solution (pH 7.0) (b) Plot of 1/ΔA vs. 1/[DNA] for 2d-DNA.
The commercially obtained reagents (TCI, Tokyo, Japan) were used directly without further purification. The ^1H-NMR and ^13C-NMR spectra were taken on Varian INOVA-600, Varian INOVA-400, Varian INOVA-300 (Palo Alto, CA, USA), or Bruker 400 spectrometers (Billerica, MA, USA), using CDCl3 or DMSO-d6 as a solvent and tetramethylsilane (TMS) as the internal standard. The NMR spectra of the compounds are in Supplementary Materials. […] The melting points were determined on a RFS-10 hot stage microscope (J-Science, Kyoto, Japan). The UV spectra were recorded with a U-2910 spectrophotometer (Hitachi, Tokyo, Japan) in a 1 cm path length quartz cuvette at an indicated wavelength, and the sample was dissolved in phosphate buffer with 2.5% DMSO.

Row | SMILES | IC50 ([1]; Homo sapiens) [nM] | IC50 ([3]; Homo sapiens, A549, 72 h) [nM] | IC50 ([4]; Homo sapiens) [nM] | also measured
1 | Cn1c2nc3ccccc3c-2c(NCC(C)(C)CNC(=O)Nc2ccccc2)c2cc(Cl)ccc21 [Compound 3c, 1-(3-(2-Chloro-5-methyl-5H-indolo[2,3-b]quinolin-11-ylamino)-2,2-dimethylpropyl)-3-phenylurea] | 790 ± 302 |  |  | 
2 | Cn1c2nc3ccccc3c-2c(NCC(C)(C)N)c2cc(Cl)ccc21 [Compound 2g, N-(2-Amino-2-methylpropyl)-2-chloro-5-methyl-5H-indolo[2,3-b]quinolin-11-amine] | 453 ± 209 |  |  | 
3 | N.N.[Cl][Pt][Cl] [Cisplatin, reference compound] |  |  |  | IC50 [1]: 2820 ± 450 nM; IC50 [2]: 8700 ± 97 nM; IC50 [3]: 9870 ± 2400 nM; IC50 [4]: 8500 ± 540 nM
4 | Cn1c2nc3ccccc3c-2c(NCC(O)CN)c2cc(Cl)ccc21 (centres unmarked) [Compound 2h, 1-Amino-3-(2-chloro-5-methyl-5H-indolo[2,3-b]quinolin-11-ylamino)propan-2-ol] | 42 ± 14 | 197 ± 28 | 138 ± 50 | 
5 | Cn1c2nc3ccccc3c-2c(NCC(C)(C)NC(=S)Nc2ccccc2)c2cc(Cl)ccc21 [Compound 4b, 1-(1-(2-Chloro-5-methyl-5H-indolo[2,3-b]quinolin-11-ylamino)-2-methylpropan-2-yl)-3-phenylthiourea] | 2330 ± 1010 |  |  | 
6 | COc1cccc2c1C(=O)c1c(O)c3c(c(O)c1C2=O)C[C@@](O)(C(=O)CO)C[C@@H]3O[C@H]1C[C@H](N)[C@H](O)[C@H](C)O1 [Doxorubicin HCl, reference compound] | 6 ± 2 | 329 ± 97 | 390 ± 98 | IC50 ([2]; Mus musculus, BALB/3T3, 72 h): 1080 ± 33 nM
7 | Cc1ccc2c(c1)c(NCC(C)(C)CNC(=O)Nc1ccccc1)c1c3ccccc3nc-1n2C [Compound 3b, 1-(3-(2,5-Dimethyl-5H-indolo[2,3-b]quinolin-11-ylamino)-2,2-dimethylpropyl)-3-phenylurea] | 427 ± 92 |  |  | 
8 | Cc1ccc2c(c1)c(NCC(C)(C)N)c1c3ccccc3nc-1n2C [Compound 2f, N-(2-Amino-2-methylpropyl)-2,5-dimethyl-5H-indolo[2,3-b]quinolin-11-amine] | 105 ± 27 | 1800 ± 270 | 2370 ± 481 | IC50 ([2]; Mus musculus, BALB/3T3, 72 h): 10600 ± 330 nM
9 | Cn1c2nc3ccccc3c-2c(NCC(C)(C)CNC(=O)Nc2ccccc2)c2ccccc21 [Compound 3a, 1-(2,2-Dimethyl-3-(5-methyl-5H-indolo[2,3-b]quinolin-11-ylamino)propyl)-3-phenylurea] | 549 ± 108 |  |  | 
10 | CC(N)CNc1c2c3ccccc3nc-2n(C)c2ccc(Cl)cc12 (centres unmarked) [Compound 2m, N-(2-Aminopropyl)-2-chloro-5-methyl-5H-indolo[2,3-b]quinolin-11-amine] | 103 ± 14 | 1270 ± 118 | 1200 ± 283 | IC50 ([2]; Mus musculus, BALB/3T3, 72 h): 1020 ± 17 nM
11 | Cn1c2nc3ccccc3c-2c(NCC(C)(C)NC(=O)Nc2ccccc2)c2ccccc21 [Compound 3d, 1-(2-Methyl-1-(5-methyl-5H-indolo[2,3-b]quinolin-11-ylamino)propan-2-yl)-3-phenylurea] | 464 ± 141 |  |  | 
12 | Cn1c2nc3ccccc3c-2c(Cl)c2ccccc21 [Compound 1a] | 1310 ± 262 |  |  | 
13 | Cn1c2nc3ccccc3c-2cc2ccccc21 [neocryptolepine (II), neocryptolepine] |  |  |  | IC50 [5]: 12700 ± 1300 nM; IC50 [6]: 7480 ± 4420 nM
14 | Cn1c2nc3ccccc3c-2c(NCC(O)CN)c2cc(Br)ccc21 (centres unmarked) [Compound 2k, 1-Amino-3-(2-bromo-5-methyl-5H-indolo[2,3-b]quinolin-11-ylamino)propan-2-ol] | 57 ± 15 | 199 | 117 ± 55 | IC50 [3]: 190 ± 27 nM
15 | Cn1c2nc3ccccc3c-2c(NCC(C)(C)N)c2cc(Br)ccc21 [Compound 2n, N-(2-Amino-2-methylpropyl)-2-bromo-5-methyl-5H-indolo[2,3-b]quinolin-11-amine] | 78 ± 20 | 988 ± 164 | 842 ± 367 | IC50 ([2]; Mus musculus, BALB/3T3, 72 h): 939 ± 18 nM
16 | Cc1ccc2c(c1)c(NCC(C)(C)CN)c1c3ccccc3nc-1n2C [Compound 2b, N-(3-Amino-2,2-dimethylpropyl)-2,5-dimethyl-5H-indolo[2,3-b]quinolin-11-amine] | 288 ± 75 |  |  | 
17 | Cn1c2nc3ccccc3c-2c(NCC(C)(C)CN)c2cc(Br)ccc21 [Compound 2d, N-(3-Amino-2,2-dimethylpropyl)-2-bromo-5-methyl-5H-indolo[2,3-b]quinolin-11-amine] | 308 ± 102 |  |  | mode of binding to DNA ([7]; UV-Vis, red shift 256 nm to 289 nm and hypochromic effect, pH 7.0, 20 °C): intercalation; binding constant to DNA ([7]; salmon sperm DNA, phosphate buffer pH 7.0, 20 °C, double-reciprocal equation): 412000 L/mol
18 | Cn1c2nc3ccccc3c-2c(NCC(C)(C)CN)c2cc(Cl)ccc21 [Compound 2c, N-(3-Amino-2,2-dimethylpropyl)-2-chloro-5-methyl-5H-indolo[2,3-b]quinolin-11-amine] | 119 ± 43 | 1460 ± 168 | 1370 ± 351 | IC50 ([2]; Mus musculus, BALB/3T3, 72 h): 9130 ± 844 nM
19 | Cn1c2nc3ccccc3c-2c(NCC(C)(C)CNC(=S)Nc2ccccc2)c2ccccc21 [Compound 4a, 1-(2,2-Dimethyl-3-(5-methyl-5H-indolo[2,3-b]quinolin-11-ylamino)propyl)-3phenylthiourea] | 680 ± 215 |  |  | 
20 | Cn1c2nc3ccccc3c-2c(NCC(C)(C)N)c2ccccc21 [Compound 2e, N-(2-Amino-2-methylpropyl)-5-methyl-5H-indolo[2,3-b]quinolin-11-amine] | 392 ± 188 |  |  | 
21 | Cn1c2nc3ccccc3c-2c(NCC(C)(C)CN)c2ccccc21 [Compound 2a, N-(3-Amino-2,2-dimethylpropyl)-5-methyl-5H-indolo[2,3-b]quinolin-11-amine] | 150 ± 60 | 1510 ± 198 | 1260 ± 361 | IC50 ([2]; Mus musculus, BALB/3T3, 72 h): 4790 ± 2020 nM
